Three compounds from paper PMC3711766 (The Journal of neuroscience : the official journal of the …, 2013) can be followed below.

Assay [1] concerns the target T1, FLAG-MOR (Mus musculus, UniProt P42866). Nature of the assay: Binding and unbinding kinetics of derm A594 in live FLAG-MOR HEK 293 cells. Conditions: for average time constant of association: derm A594 30 nM.
The target in assay [2] is T1, FLAG-MOR. It is filed as binding. Conditions: derm A594 200 nM; ME 30 µM 2 hrs, then ME 3 µM pre pulse.
The target in assay [3] is T1, FLAG-MOR. Nature of the assay: Steady state binding of derm A594 in live FLAG-MOR HEK 293 cells.
In assay [4] the target is T1, FLAG-MOR. The assay is classed as binding.
Assay [5] concerns the target T1, FLAG-MOR. It is filed as binding. This is another data set of the same source.
Assay [6] concerns the target T1, FLAG-MOR. The assay is classed as cell-based. Conditions: ME 1 µM, 5 sec; pertussis toxin 100 ng/mL overnight.

Where two headings read alike, the source gives them in different places. Where a SMILES comes first, the peptide text is derived from it. [ ]: non-standard residue; d: D form. The star is where a group is joined. X1 = CN1c2cc3c(cc2C(CS(=O)(=O)[O-])=CC1(C)C)C(c1ccc(C(=O)NCCCCCN2C(=O)CC(*)C2=O)cc1C(=O)O)=c1cc2c(cc1O3)=[N+](C)C(C)(C)C=C2CS(=O)(=O)O

T1 sequence (P42866 whole entry): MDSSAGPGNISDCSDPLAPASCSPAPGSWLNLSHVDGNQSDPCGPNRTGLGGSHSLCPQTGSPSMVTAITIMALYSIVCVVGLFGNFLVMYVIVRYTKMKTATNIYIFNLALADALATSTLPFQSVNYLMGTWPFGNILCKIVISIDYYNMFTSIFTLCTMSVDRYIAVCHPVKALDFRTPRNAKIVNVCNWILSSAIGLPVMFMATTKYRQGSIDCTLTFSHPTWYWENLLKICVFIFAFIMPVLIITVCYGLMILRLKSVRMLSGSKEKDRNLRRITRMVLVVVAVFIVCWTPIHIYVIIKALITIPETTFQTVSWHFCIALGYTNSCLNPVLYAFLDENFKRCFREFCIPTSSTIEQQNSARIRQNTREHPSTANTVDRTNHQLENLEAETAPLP

Usually kon stands for the rate constant with which the complex forms. Usually koff stands for the first-order rate constant of dissociation. `C[C@@H](NC(=O)[C@@H](N)Cc1ccc(O)cc1)C(=O)N[C@@H](Cc1ccccc1)C(=O)NCC(=O)N[C@@H](Cc1ccc(O)cc1)C(=O)N1CCC[C@H]1C(=O)N[C@@H](CCCCN)C(=O)N[C@@H](CSC1CC(=O)N(CCCCCNC(=O)c2ccc(C3=c4cc5c(cc4Oc4cc6c(cc43)C(CS(=O)(=O)[O-])=CC(C)(C)N6C)=[N+](C)C(C)(C)C=C5CS(=O)(=O)O)c(C(=O)O)c2)C1=O)C(N)=O` (stereo partly drawn) [derm A594, dermorphin Alexa 594] (H-Y[dA]FGYPKC(X1)-NH2; N-terminus assumed) showed a kon at FLAG-MOR [1] of 353000 M⁻¹ s⁻¹. The “decrease of koff after ME treatment” value on FLAG-MOR [1] (ME 30 µM 2 hr vs untreated) is given as “approximately 6 fold”. On FLAG-MOR [1] (ME 30 µM 2 hr vs untreated), the “decrease of kon after ME treatment” value was “about 40%”. Also, the figures for the “average time constant of association” value on FLAG-MOR [1] (ME treated cells (30 µM 2 hr)) and on FLAG-MOR [1] (untreated cells) were 51.5 ± 7.8 s and 11.4 ± 0.4 s, respectively. Besides, on FLAG-MOR [1] (live cells), the “time constant of dissociation from the receptor” value is around 10 s. On FLAG-MOR [1] (read-out: koff (intercept of linear fit)), the koff is 0.011 s⁻¹. The “relative amount of derm A594 bound after 1 min (R/G)” value on FLAG-MOR [2] came to 0.95±0.08. Moreover, the “Hill slope of steady state binding” value at FLAG-MOR [3] (after ME 30 µM 2 hrs) is 1.03±0.3; at FLAG-MOR [3] (untreated live cells), 0.95±.02. Further, the “fraction derm A594 remaining after 3 min” value on FLAG-MOR [4] (WT MEF cells, untreated) came out at 0.09±0.01; at FLAG-MOR [4] (β-arr 1/2 k.o. MEF cells, untreated) it was 0.13±0.02.
For `COc1ccc2c3c1O[C@H]1C(=O)CC[C@@]4(O)[C@@H](C2)N(C)CC[C@]314` [oxycodone], at FLAG-MOR [5], the “fraction derm A594 remaining after 3 min” value amounted to 0.23±0.01.
At FLAG-MOR [6], pertussis toxin [reference compound] came in with a GIRK current of 3.3±6.8 pA. For the same compound, at FLAG-MOR [4] (β-arr 1/2 k.o. MEF cells, pertussis toxin 100 ng/ml overnight, no ME), the “fraction derm A594 remaining after 3 min” value was determined as 0.12±0.02.
